The results in this text go back to ChEMBL document CHEMBL5214923, “Contemporary mTOR inhibitor scaffolds to diseases breakdown: A patent review (2015-2021)” (Eur J Med Chem, 2022).

Test [1] has as its target Phosphatidylinositol 4,5-bisphosphate 3-kinase catalytic subunit gamma isoform (Homo sapiens, UniProt P48736). Briefly: Inhibition of PI3Kgamma (unknown origin) by TR-FRET assay. (In general: TR-FRET usually uses a lanthanide donor and a delayed reading to cut background.)
Test [2] addresses Phosphatidylinositol 4,5-bisphosphate 3-kinase catalytic subunit beta isoform (Homo sapiens, UniProt P42338). Briefly: Inhibition of PI3Kbeta (unknown origin) by TR-FRET assay.
For test [3], the system named is SF-268. Briefly: Antitumor activity against human SF-268 cells assessed as cell growth inhibition. Type of test: functional, cell-based.
Test [4] deals with DU-145. The test is described as follows: Antitumor activity against human DU-145 cells assessed as cell growth inhibition. Type of test: functional, cell-based.
In test [5] the target is Peptidyl-prolyl cis-trans isomerase FKBP1A (Homo sapiens, UniProt P62942). Briefly: Binding affinity to FKBP12 (unknown origin) assessed as inhibition constant.
Test [6] has as its target mTORC1 (Homo sapiens, UniProt P42345+Q8N122+Q9BVC4). The test is described as follows: Inhibition of mTORC1 in human Jurkat cells assessed as inhibition of S6K phosphorylation incubated for 4 hrs by Western blot analysis. Type of test: cell-based. Background: In western blotting, separated proteins are transferred to a membrane and probed.
Test [7] in a line: Antitumor activity against human U-87 MG cells assessed as cell growth inhibition. The format is functional, cell-based, U-87MG ATCC.
Test [8] concerns PC-3. Briefly: Antitumor activity against human PC-3 cells assessed as cell growth inhibition. The format is functional, cell-based.
Test [9] deals with T1, Phosphatidylinositol 4,5-bisphosphate 3-kinase catalytic subunit alpha isoform (Homo sapiens, UniProt P42336). Briefly: Inhibition of PI3Kalpha (unknown origin) by TR-FRET assay.
For test [10], the target named is T2, Phosphatidylinositol 4,5-bisphosphate 3-kinase catalytic subunit delta isoform (Homo sapiens, UniProt O00329).
T2 sequence (O00329 whole entry): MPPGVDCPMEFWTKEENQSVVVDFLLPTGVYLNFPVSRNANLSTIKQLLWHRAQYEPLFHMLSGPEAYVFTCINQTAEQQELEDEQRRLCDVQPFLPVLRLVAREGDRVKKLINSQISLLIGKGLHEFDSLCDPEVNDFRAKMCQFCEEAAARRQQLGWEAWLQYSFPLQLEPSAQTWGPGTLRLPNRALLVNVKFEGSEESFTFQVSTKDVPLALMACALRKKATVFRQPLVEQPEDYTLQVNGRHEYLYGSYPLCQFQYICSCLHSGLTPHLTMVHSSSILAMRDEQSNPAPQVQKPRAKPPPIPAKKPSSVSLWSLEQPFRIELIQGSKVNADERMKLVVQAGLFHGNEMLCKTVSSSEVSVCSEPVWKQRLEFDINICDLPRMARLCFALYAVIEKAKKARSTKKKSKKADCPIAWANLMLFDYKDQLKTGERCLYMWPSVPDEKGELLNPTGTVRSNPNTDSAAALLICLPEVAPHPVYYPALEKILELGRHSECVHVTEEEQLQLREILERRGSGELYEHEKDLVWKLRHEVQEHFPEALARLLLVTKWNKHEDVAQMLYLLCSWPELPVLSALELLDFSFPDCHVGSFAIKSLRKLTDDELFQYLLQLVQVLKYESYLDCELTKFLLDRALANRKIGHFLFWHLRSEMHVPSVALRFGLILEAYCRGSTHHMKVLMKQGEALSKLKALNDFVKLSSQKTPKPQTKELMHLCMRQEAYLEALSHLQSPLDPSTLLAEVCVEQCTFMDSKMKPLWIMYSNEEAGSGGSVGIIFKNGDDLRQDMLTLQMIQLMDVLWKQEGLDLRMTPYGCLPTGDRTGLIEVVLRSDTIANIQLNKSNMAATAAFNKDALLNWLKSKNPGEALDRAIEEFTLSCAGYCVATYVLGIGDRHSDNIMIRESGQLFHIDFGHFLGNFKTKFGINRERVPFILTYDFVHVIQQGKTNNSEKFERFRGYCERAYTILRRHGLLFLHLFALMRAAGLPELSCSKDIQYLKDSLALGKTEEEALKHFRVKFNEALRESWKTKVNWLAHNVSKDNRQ
The test is described as follows: Inhibition of PI3Kdelta (unknown origin) by TR-FRET assay.

The target in test [11] is T1, Phosphatidylinositol 4,5-bisphosphate 3-kinase catalytic subunit alpha isoform. The test is described as follows: Inhibition of PI3Kalpha (unknown origin).
For test [12], the target named is PI3-kinase p110-alpha/p85-alpha (Homo sapiens, UniProt P42336). Briefly: Inhibition of PI3K p110alpha/p85alpha (unknown origin) using PIP2 as substrate preincubated for 15 mins followed by substrate addition measured after 1 hr in presence of ATP by TR-FRET assay. The format is protein-complex assay.
The target in test [13] is Serine/threonine-protein kinase mTOR (Homo sapiens, UniProt P42345). Briefly: Inhibition of recombinant mTOR (unknown origin) using GFP-4E-BP1 as substrate preincubated for 15 mins followed by substrate addition measured after 1 hr by TR-FRET assay.

pIC50, pKi: −log10 of the molar value. Where only a bound is given, the exact number is not on record here.

Sequence of Phosphatidylinositol 4,5-bisphosphate 3-kinase catalytic subunit gamma isoform (P48736 whole entry, canonical isoform): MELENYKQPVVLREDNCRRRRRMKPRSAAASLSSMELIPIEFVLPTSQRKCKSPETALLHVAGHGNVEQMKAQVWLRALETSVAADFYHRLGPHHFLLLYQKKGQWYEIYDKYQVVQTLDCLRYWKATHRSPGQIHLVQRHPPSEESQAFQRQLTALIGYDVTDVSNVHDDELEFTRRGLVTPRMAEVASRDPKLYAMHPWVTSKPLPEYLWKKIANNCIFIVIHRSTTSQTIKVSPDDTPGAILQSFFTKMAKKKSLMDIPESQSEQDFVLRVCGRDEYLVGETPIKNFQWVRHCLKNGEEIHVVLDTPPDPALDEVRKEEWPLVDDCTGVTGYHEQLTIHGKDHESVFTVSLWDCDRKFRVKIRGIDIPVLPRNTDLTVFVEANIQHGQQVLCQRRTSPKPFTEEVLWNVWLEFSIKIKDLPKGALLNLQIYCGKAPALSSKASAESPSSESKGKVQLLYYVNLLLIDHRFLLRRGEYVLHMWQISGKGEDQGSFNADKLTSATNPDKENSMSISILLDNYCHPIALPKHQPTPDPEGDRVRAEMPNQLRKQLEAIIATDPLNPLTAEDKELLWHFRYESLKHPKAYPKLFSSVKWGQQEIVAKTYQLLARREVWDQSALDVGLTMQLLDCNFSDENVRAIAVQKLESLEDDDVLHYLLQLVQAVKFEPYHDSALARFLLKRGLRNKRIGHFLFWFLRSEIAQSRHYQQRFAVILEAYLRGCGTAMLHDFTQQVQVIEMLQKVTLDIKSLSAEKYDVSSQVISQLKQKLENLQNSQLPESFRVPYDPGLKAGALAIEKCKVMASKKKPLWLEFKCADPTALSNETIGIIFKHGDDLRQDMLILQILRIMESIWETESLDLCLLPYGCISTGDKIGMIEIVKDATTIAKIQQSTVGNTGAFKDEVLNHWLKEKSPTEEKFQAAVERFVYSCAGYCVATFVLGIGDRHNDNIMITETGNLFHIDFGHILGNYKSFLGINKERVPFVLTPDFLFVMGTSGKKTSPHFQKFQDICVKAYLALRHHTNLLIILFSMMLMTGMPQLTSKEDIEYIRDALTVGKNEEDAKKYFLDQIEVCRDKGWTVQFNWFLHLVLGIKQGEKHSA
T1 sequence (P42336 whole entry, canonical isoform): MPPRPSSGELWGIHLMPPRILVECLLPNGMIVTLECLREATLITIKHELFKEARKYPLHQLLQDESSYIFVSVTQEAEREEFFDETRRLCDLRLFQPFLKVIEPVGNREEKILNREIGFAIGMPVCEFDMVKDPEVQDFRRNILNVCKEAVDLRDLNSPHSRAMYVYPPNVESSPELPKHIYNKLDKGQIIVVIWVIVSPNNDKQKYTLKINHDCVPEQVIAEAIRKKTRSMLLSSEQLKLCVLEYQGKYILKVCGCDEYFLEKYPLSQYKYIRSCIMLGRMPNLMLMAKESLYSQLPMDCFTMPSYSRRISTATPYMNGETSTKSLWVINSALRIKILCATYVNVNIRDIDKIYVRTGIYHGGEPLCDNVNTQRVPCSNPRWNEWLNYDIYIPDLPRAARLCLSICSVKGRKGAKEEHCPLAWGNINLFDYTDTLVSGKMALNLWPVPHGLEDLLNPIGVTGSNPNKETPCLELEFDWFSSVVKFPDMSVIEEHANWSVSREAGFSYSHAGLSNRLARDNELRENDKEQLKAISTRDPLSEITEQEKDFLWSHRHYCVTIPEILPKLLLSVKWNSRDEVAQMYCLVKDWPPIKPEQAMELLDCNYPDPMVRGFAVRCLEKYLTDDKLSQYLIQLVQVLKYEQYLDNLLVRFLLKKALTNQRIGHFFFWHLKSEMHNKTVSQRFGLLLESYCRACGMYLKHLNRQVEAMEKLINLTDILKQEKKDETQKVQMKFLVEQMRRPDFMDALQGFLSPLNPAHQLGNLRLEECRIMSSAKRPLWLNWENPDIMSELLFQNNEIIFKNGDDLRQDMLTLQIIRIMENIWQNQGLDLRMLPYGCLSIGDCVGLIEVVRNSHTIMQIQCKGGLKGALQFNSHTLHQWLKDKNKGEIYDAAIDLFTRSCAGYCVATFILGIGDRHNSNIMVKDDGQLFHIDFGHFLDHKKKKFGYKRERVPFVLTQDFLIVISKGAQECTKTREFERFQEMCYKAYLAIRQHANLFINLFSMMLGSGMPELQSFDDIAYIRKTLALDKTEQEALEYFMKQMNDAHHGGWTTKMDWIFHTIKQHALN
Sequence of Phosphatidylinositol 4,5-bisphosphate 3-kinase catalytic subunit beta isoform (P42338 whole entry, canonical isoform): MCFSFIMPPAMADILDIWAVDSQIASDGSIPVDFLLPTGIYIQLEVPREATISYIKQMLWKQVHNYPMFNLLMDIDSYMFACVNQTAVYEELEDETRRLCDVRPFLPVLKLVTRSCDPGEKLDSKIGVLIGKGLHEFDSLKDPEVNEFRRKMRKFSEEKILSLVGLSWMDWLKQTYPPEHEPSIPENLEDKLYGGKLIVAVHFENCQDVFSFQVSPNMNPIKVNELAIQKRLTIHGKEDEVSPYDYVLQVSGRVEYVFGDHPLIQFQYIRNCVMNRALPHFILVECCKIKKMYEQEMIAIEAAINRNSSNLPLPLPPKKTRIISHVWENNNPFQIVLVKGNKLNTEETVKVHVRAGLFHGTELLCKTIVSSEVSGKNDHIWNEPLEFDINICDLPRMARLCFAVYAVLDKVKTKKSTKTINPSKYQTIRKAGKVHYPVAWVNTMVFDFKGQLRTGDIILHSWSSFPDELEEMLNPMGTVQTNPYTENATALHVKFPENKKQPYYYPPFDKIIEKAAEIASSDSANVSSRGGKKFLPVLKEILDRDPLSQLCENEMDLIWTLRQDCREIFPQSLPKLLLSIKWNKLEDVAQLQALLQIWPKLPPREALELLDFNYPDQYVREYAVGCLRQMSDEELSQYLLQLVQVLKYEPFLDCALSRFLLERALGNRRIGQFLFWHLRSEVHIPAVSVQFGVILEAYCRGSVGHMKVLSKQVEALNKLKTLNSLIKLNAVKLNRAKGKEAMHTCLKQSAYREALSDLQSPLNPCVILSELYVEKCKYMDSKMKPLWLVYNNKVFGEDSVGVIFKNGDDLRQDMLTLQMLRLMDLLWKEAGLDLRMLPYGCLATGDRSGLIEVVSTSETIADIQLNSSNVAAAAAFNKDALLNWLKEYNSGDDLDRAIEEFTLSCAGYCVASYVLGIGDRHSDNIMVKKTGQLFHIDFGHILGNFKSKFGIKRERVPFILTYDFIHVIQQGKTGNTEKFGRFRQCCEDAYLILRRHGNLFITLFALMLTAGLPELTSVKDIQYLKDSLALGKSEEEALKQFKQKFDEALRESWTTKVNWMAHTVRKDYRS
Sequence of Peptidyl-prolyl cis-trans isomerase FKBP1A (P62942 whole entry): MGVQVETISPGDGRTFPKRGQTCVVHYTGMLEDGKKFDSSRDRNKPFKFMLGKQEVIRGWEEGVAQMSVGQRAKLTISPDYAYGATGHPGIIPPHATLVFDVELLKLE
Sequence of PI3-kinase p110-alpha/p85-alpha (P27986 whole entry): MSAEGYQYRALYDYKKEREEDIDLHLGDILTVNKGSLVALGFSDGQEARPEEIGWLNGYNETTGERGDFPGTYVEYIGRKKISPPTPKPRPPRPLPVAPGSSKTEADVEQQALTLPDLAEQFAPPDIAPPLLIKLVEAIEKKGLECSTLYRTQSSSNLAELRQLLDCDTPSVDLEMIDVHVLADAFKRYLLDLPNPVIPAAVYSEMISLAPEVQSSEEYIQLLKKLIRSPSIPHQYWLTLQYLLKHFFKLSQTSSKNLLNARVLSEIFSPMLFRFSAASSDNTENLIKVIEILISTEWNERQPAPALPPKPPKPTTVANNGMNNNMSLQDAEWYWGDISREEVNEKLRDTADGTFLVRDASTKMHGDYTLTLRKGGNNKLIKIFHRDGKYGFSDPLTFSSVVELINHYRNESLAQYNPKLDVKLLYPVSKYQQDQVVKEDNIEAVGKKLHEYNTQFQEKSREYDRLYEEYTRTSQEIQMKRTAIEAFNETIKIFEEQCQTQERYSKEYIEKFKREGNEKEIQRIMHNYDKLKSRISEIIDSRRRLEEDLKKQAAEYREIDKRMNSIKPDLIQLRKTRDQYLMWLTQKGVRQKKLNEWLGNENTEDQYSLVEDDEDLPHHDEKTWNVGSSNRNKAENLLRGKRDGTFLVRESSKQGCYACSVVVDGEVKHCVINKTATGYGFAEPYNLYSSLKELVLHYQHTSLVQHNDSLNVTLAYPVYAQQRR
Sequence of PI3-kinase p110-alpha/p85-alpha (P42336 whole entry): as the sequence (P42336 whole entry, canonical isoform) above

As for `O=S(=O)(Nc1cc(-c2ccc3ncc(N4CCNCC4)nc3c2)cnc1Cl)c1ccc(F)cc1`, the figures for the pIC50 in test [1] and in test [2] were 8.29 and 8.32, respectively.

With `CO[C@@H]1C[C@@H]2CC[C@@H](C)[C@@](O)(O2)C(=O)C(=O)N2CCCC[C@H]2C(=O)OC([C@H](C)C[C@@H]2C[C@@H]3C[C@H]2C[C@H]3O)CC(=O)[C@H](C)/C=C(\C)[C@@H](O)[C@@H](OC)C(=O)[C@H](C)C[C@H](C)/C=C/C=C/C=C/1C` (stereo not given in full), the pIC50 in test [3] is 9.72; in test [4] it was 8.57; in test [6], 10.00; in test [7] it was 8.66; in test [8], 8.60. Moreover, the pKi in test [5] was 8.41.

For `NOCCOCCOCCOCCC(=O)N1CCN(c2cnc3ccc(-c4cnc(Cl)c(NS(=O)(=O)c5ccc(F)cc5)c4)cc3n2)CC1`, the pIC50 in test [9] was above 8.31; in test [10], above 9.31; in test [1], 8.88; in test [2] it was 7.52.

In test [11], `CC(C)(O)c1ccc(-c2cnc3c(n2)N(CC2CCOCC2)CC(=O)N3)cn1` had a pIC50 below 4.52.

For `CN(C)C(=O)C1CCC(Oc2nc(-c3ccc(N)nc3)nc(N3CCOCC3)n2)CC1` (stereo not given), the pIC50 in test [12] and in test [13] was above 6.00 each time.

In general, pIC50 refers to the negative decadic logarithm of the IC50, by convention in mol/L. One may read the pKi as −log10 of the Ki, conventionally taken in molar units.
